pIC50: −log10 of the molar value.
Experiment: In vitro inhibition of PAF-induced platelet aggregation in male rabbits

pIC50	Structure (SMILES)
7.54	Cc1ncccc1C(C#N)N1CCN(C(=O)CC(NC(=O)c2ccc[nH]c2=O)c2ccccc2)CC1 (stereo not drawn) [N-(3-{4-[Cyano-(2-methyl-pyridin-3-yl)-methyl]-piperazin-1-yl}-3-oxo-1-phenyl-propyl)-2-hydroxy-nicotinamide]
7.74	Cc1ncccc1C(C#N)N1CCN(C(=O)CC(NS(=O)(=O)c2ccccc2)c2ccccc2)CC1 (stereo not drawn) [N-(3-{4-[Cyano-(2-methyl-pyridin-3-yl)-methyl]-piperazin-1-yl}-3-oxo-1-phenyl-propyl)-benzenesulfonamide]
7.68	Cc1ncccc1C(C#N)N1CCN(C(=O)CC(NS(C)(=O)=O)c2ccccc2)CC1 (stereo not drawn) [N-(3-{4-[Cyano-(2-methyl-pyridin-3-yl)-methyl]-piperazin-1-yl}-3-oxo-1-phenyl-propyl)-methanesulfonamide]
7.09	Cc1ncccc1C(C#N)N1CCN(C(=O)CN(C(c2ccccc2)c2ccccc2)S(C)(=O)=O)CC1 (stereo not drawn) [N-Benzhydryl-N-(2-{4-[cyano-(2-methyl-pyridin-3-yl)-methyl]-piperazin-1-yl}-2-oxo-ethyl)-methanesulfonamide]
6.09	Cc1ncccc1C(C#N)N1CCN(C(=O)CC(NC(=O)c2cnccn2)c2ccccc2)CC1 (stereo not drawn) [Pyrazine-2-carboxylic acid (3-{4-[cyano-(2-methyl-pyridin-3-yl)-methyl]-piperazin-1-yl}-3-oxo-1-phenyl-propyl)-amide]
7.06	Cc1ncccc1C(C#N)N1CCN(C(=O)CON=C(c2ccccc2)c2ccccc2)CC1 (stereo not drawn) [[4-(2-Benzhydrylideneaminooxy-acetyl)-piperazin-1-yl]-(2-methyl-pyridin-3-yl)-acetonitrile]
4.81	CCOC(=O)C(c1cccnc1C)N1CCN(C(=O)CC(c2ccccc2)c2ccccc2)CC1 (stereo not drawn) [[4-(3,3-Diphenyl-propionyl)-piperazin-1-yl]-(2-methyl-pyridin-3-yl)-acetic acid ethyl ester]
7.49	Cc1ncccc1C(C#N)N1CCN(C(=O)CC(O)(c2ccccc2)c2cccnc2)CC1 (stereo not drawn) [[4-(3-Hydroxy-3-phenyl-3-pyridin-3-yl-propionyl)-piperazin-1-yl]-(2-methyl-pyridin-3-yl)-acetonitrile]
7.44	Cc1ncccc1C(C#N)N1CCN(C(=O)CC(C)(O)c2ccccc2)CC1 (stereo not drawn) [[4-(3-Hydroxy-3-phenyl-butyryl)-piperazin-1-yl]-(2-methyl-pyridin-3-yl)-acetonitrile]
7.12	Cc1ncccc1C(C#N)N1CCN(C(=O)CC(O)(c2ccc(F)cc2)c2ccc(F)cc2)CC1 (stereo not drawn) [{4-[3,3-Bis-(4-fluoro-phenyl)-3-hydroxy-propionyl]-piperazin-1-yl}-(2-methyl-pyridin-3-yl)-acetonitrile]
6.77	Cc1ncccc1C(C#N)N1CCN(C(=O)CC(c2ccccc2)N2CCCS2(=O)=O)CC1 (stereo not drawn) [{4-[3-(1,1-Dioxo-1lambda*6*-isothiazolidin-2-yl)-3-phenyl-propionyl]-piperazin-1-yl}-(2-methyl-pyridin-3-yl)-acetonitrile]

Structure (SMILES)	pIC50
Cc1ncccc1C(C#N)N1CCN(C(=O)C[S+]([O-])C(c2ccccc2)c2ccccc2)CC1 (stereo not drawn) [{4-[2-(Diphenyl-methanesulfinyl)-acetyl]-piperazin-1-yl}-(2-methyl-pyridin-3-yl)-acetonitrile]	7.36
Cc1ncccc1C(C#N)N1CCN(C(=O)CS(=O)(=O)C(c2ccccc2)c2ccccc2)CC1 (stereo not drawn) [{4-[2-(Diphenyl-methanesulfonyl)-acetyl]-piperazin-1-yl}-(2-methyl-pyridin-3-yl)-acetonitrile]	7.59

From BindingDB's records for doi:10.1021/jm00072a019 (J. Uriach & Cía., 1993)
